A word on the IC50: it is the point on the concentration scale where inhibition reaches its midpoint.

The target in the test is lck (Homo sapiens, UniProt P06239). As to the kind of experiment: cell-based.
lck, sequence (P06239 whole entry): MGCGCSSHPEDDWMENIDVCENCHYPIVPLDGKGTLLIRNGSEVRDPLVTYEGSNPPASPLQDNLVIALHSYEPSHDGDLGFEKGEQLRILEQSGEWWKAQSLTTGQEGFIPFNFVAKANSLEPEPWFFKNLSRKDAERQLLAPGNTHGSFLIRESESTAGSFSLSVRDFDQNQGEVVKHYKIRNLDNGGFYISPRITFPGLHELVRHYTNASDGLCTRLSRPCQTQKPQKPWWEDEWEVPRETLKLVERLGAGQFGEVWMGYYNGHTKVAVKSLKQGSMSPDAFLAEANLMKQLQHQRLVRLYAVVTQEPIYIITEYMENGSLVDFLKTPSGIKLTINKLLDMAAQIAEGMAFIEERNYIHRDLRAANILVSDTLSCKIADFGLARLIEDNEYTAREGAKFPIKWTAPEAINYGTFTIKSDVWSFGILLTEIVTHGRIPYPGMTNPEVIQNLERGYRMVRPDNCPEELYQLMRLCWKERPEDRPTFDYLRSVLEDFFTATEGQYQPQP

For `N#CC(=C(/N)Sc1ccccc1N)/C(C#N)=C(\N)Sc1ccccc1N` [U0126], the IC50 is above 30 µM.

Source of the values: patent US20150185215A1, “Cell-Based Assays For Post-Translational Enzyme Activity” (Cell Assay Innovations, Inc., priority 2012, published 2015).
